# Measurements as given in EP1006112A1, “3-Hydroxy-2(1H)-pyridinone or 3-hydroxy-4(1H)-pyridinone derivatives useful as reactive oxygen species (ROS) scavengers” (Cerebrus Pharmaceuticals Limited, priority 1998, dated 2000).
# Counter-ions that a name gives are not always drawn.
# Columns and labels:
# [1] = tested on: Lipid peroxidation in rat brain homogenates; assay: Lipid peroxidation assay (ascorbic acid-induced, TBA/MDA readout); type: biochemical; settings: concentration required to inhibit lipid peroxidation by 50%; rat cortex preparation, 500-µM L-ascorbic acid, 37 °C, 30 min
# Procedure: Lipid peroxidation in rat brain homogenates is a general procedure used to measure the antioxidant capacity of molecules in a biological environment (Das N.P. and Ratty A.K., Biochem. Med. Metab. Biol, 1987, 37, 256-264).
# Rat cortex was homogenised in 20 vols. of ice cold 0.32-M sucrose and centrifuged at 1,000 g for 10 min. The pellet was discarded whilst the resulting supernatant was centrifuged at 15,000 g for 20 min at 4 °C to yield p2 pellets. The pellet was re-suspended in ice-cold 50.0-mM phosphate buffer and centrifuged at 30,000 g for 20 min at 4 °C. The pellet was re-suspended in 30 vols. of 50.0-mM phosphate buffer and used immediately in the assay.
# Assays contained 500-µM L-ascorbic acid to induce lipid peroxidation, plus various concentrations of test compound, with the tissue preparation in a total volume of 500 µL. This was incubated at 37 °C for 30 min. Lipid peroxidation was measured by adding to the reaction mixture, 300 µL 40 % (w/v) trichloroacetic acid, 150 µL 5.0-M HCl and 300 µL 2 % (w/v) 2-thiobarbituric acid (TBA). […] The pink colour of the supernatant was assessed spectrophotometrically at a wavelength of 532 nm. The amount of malondialdehyde (MDA) in the samples was calculated using a standard curve prepared with malondialdehyde tetrabutylammonium salt (Das, N.P. and Ratty, A.K. Biochem. Med. Metab. Biol. (1987), 37, 256-264). […]
# [2] = tested on: cerebellar granule cell (CGC) cultures; assay: Iodoacetate induced cell toxicity in culture (cell death, MTT-reductase activity); type: cell-based; settings: protection of CGC after 30-µM IAA for 30 min (with 10-µM MK-801), 24 hour incubation with test compound
# Procedure: After 6-8 days in culture, cerebellar granule cell (CGC) cultures in 96-well plates (250,000 cells per well) were prepared for hypoglycaemia. lodoacetate (IAA) was made up in a balanced salt solution (BSS) (NaCl, 154.0-mM; KCl, 5.6-mM; MgCl2, 1.0-mM; CaCl2, 2.5-mM; N-[2-hydroxyethyl]piperazine-N'-[2-ethanesulfonic acid] (HEPES), 10.0-mM; D-glucose, 5.6-mM; pH 7.4) and any neuroprotective agents were made up in pre-warmed tissue culture media and allowed to equilibrate in a controlled environment (5 % CO2, 95 % air). The assay was initiated by aspiration of the maintenance media, which was replaced by either BSS (control) or 30-µM IAA in BSS, both solutions containing 10-µM of the NMDA receptor antagonist MK-801. The exposure to IAA was for 30 min only at 37 °C, after which time the BSS was aspirated and replaced with fresh, pre-equilibriated maintenance media containing various concentrations of test compound. All conditions were performed at least in duplicate in each 96 well plate. The final volume for each well was always 200 µL. Following a 24 hour incubation, visual inspection of the cells was followed by quantification of neuronal cell death by measuring 3-[4,5-dimethylthiazol-2-yl]-2,5-diphenyltetrazolium bromide (MTT)-reductase activity as described previously (Malcolm et al., J. Neurochem. 1996, 66, 2350-2360).
Structure (SMILES),IC50 [1] [µM],EC50 [2] [µM]
"COc1ccc2[nH]cc(CCNC(=O)CCn3ccc(=O)c(O)c3C)c2c1 [Example 1, 3-(1,4-Dihydro-3-hydroxy-2-methyl-4-oxo-1-pyridinyl)-N-(2-(5-methoxy-3-indolyl)ethyl)propanamide mesylate]",1.5,4.9
"COc1ccc2[nH]cc(CCn3ccc(=O)c(O)c3C)c2c1 [Example 2, 3-Hydroxy-1-(2-(5-methoxy-3-indolyl)ethyl)-2-methyl-4(1H)-pyridinone]",2,11.9
